Values of other authors as cited in patent publication US20140314667A1, “METHODS OF TREATING EPIDERMAL GROWTH FACTOR DELETION MUTANT VIII RELATED DISORDERS” (AMGEN INC., priority 2011, published 2014).

Legend:
[1] = system: P388, L1210, and LY5178 murine leukemic cell suspensions; details: in vitro; cited from earlier work
[2] = system: L1210 mouse leukemia system, the human Lewis lung carcinoma system and the human B-16 melanocarcinoma system; details: Kupchan 1974; cited from earlier work
L1210 cells = details: Sieber et al.; untreated control mitotic index 3.2 to 5.8%; cited from earlier work
[3] = system: human acute lymphoblastic leukemia line CEM; details: in vitro, Wolpert-DeFillippes et al.; cited from earlier work
[4] = system: P388 lymphocytic leukemia system; details: Kupchan 1974; cited from earlier work
[5] = U.S. Pat. No. 3,896,111; cited from earlier work

COc1cc2cc(c1Cl)N(C)C(=O)C[C@H](OC(=O)[C@H](C)N(C)C(C)=O)[C@]1(C)O[C@H]1[C@H](C)[C@@H]1C[C@@](O)(NC(=O)O1)[C@H](OC)/C=C/C=C(\C)C2 [Maytansine]
inhibitory doses [1]: 10^−3 to 10^−1 µg/µl
inhibitory activity [2]: significant inhibitory activity
cells accumulating in mitosis (L1210 cells): 67%
inhibitory concentration [3]: ≥ 10^−7 mg/ml
dosage range over which tumor growth was inhibited [4]: 50- to 100 fold
more cytotoxic than conventional cancer chemotherapeutic agents like methotrexate, daunorubicin, and vincristine [5]: 100 to 1000 fold
